Common to all, as to type: cell-based
Test [1] concerns human pancreatic islets from T1D subjects (T1DI). In words: Human pancreatic islet treatments and qPCR, T1D islets (T1DI). On the procedure: (§1) To investigate how the fasting mimicking conditions affect Ngn3 expression and β-cell functions in human pancreatic cells, we performed ex vivo experiments using primary human pancreatic islets (FIG. 6A). Briefly, the pancreatic islets from healthy and T1D subjects (HI and T1DI, respectively) were cultured according to the manufacturer's instructions. The cultured islets were then treated with serum from subjects enrolled in a clinical trial testing the effects of a low protein and low calorie FMD lasting 5 days (NCT02158897)^17. Serum samples were collected at baseline and at day 5 of the fasting mimicking diet in 5 subjects.
(§2) In cells from normal human subjects, these effects were reversed by IGF-1 treatment (FIG. 6G). […]
(§3) Cells were treated for 36 h with: Standard medium: Celprogen, M35002-045 for healthy islets and M35001-035 for T1D islets). […] Total RNA was extracted using RNeasy Mini kit (Qiagen) according to the manufacturer's instructions and quantified with the use of the Nanodrop system (Thermo Scientific, Waltham, Mass., USA). […] The expression level were analyzed by quantitative real-time polymerase chain reaction (PCR) on a Roche LightCycler 480II . Gene expression was quantified using the comparative Ct method.

Test [2] has as its system human pancreatic islets from healthy subjects (HI). In words: Human pancreatic islet treatments and qPCR, healthy islets (HI). The note with it: cells from normal human subjects, STS medium with IGF-1 40 ng/ml. On the procedure:
as §1, §2, §3

Test [3] concerns PKA. The test is described as follows: PKA activity in human pancreatic islets. To be noted: STS medium with IGF-1 40 ng/ml. On the procedure: It also dampened the activity of mTOR, which is a key mediator of amino acid signaling (FIG. 6I). To further investigate the role of these nutrient sensing signaling pathways in regulating the expression of lineage markers (i.e. Sox2 and Ngn3), we tested the role of the Tor-S6K and PKA pathways, which function downstream of IGF-1, in the reprogramming of pancreatic cells. Human pancreatic islets cultured in standard medium were treated with rapamycin, which inhibits mTOR, and H89, which inhibits PKA. mTOR and PKA were implicated by our group and others in the regeneration of other cell types (Cheng et al., 2014; Yilmaz et al., 2012).
as §3
PKA activity was measured using the PKA kinase activity kit (Enzo Life Science, Inc. Farmingdale, N.Y., USA) according to manufacturer instructions.

Consider `O=S(=O)(NCCNC/C=C/c1ccc(Br)cc1)c1cccc2cnccc12` [H89, reference compound], for which the “expression of lineage markers Sox2 and Ngn3” value in test [1] (T1DI in standard medium, 36 h, Rapamycin 20 nM, H89 20 uM) is on record as “not induced”.
For the compound “IGF-1: IGF1 (40 ng/ml) (ProSpec), growth factor added to STS medium”, in test [2], the “effect on STS-induced expression of Sox2, Ngn3 and insulin” value is reported as “reversed”. Moreover, in test [1] (human T1D cells, STS medium with IGF-1 40 ng/ml), the “effect on STS-increased insulin and Sox 2 gene expression” value was “reversed”. The “effect on STS-reduced PKA activity” value in test [3] (T1D human islets) and in test [3] (healthy human islets) was “reversed” throughout.

Source of the values: US10660932B2, “Drug combinations and methods to stimulate embryonic-like regeneration to treat diabetes and other diseases” (UNIVERSITY OF SOUTHERN CALIFORNIA, priority 2016, dated 2020).
